Holding throughout (set-up): species or system Spodoptera litura
Assay [1] concerns EcR-DF/USP-AE complex. The assay is described as follows: Screening system: inhibition of [3H]ponasterone A binding to the complex by test compounds. The conditions noted are these: for activity of binding to the EcR-DF/USP-AE complex: endocrine disrupters and female hormone, FIG. 25; for inhibition of the binding of [3H]ponasterone A to the complex: concentration of test compound changed, FIG. 24; for activity of binding to the complex: test compound 10,000 times stronger than [3H]ponasterone A. The procedure: In Example 7, a screening system used for screening an insect inhibitor was constructed based on the results of Examples 1 to 6. As described in Examples 1 to 6, when binding analysis was carried out using ponasterone A as an ecdysone agonist, ponasterone A binding to a complex consisting of EcR-DF and USP-AE was observed. In order to confirm whether or not this system functions as a screening system, the binding of the complex to other ecdysone agonists should also be observed. Thus, using 20-hydroxyecdysone that is an ecdysone active in living insect bodies and tebufenozide (RH-5992) that is a synthetic ecdysone agonist, the binding experiment was carried out between the […] and each of the above compounds.
First, EcR-DF and USP-AE were mixed into a binding buffer, and [^3H]ponasterone A was then added thereto in the same manner as in Example 4. Also, the same experiment was carried out with the exception that 20-hydroxyecdysone or tebufenozide that was 10,000 times stronger than [^3H]ponasterone A was added thereto, so as to obtain nonspecific binding. […] Thus, the same experiment was carried out while the concentration of 20-hydroxyecdysone or tebufenozide was changed.
Subsequently, in the present example, using a screening system in which ability to bind to the EcR-DF/USP-AE complex is used as an index, 4 types of compounds were evaluated in terms of such binding ability. As compounds to be evaluated, 4-nonylphenol, stilbestrol, and diethyl phthalate (endocrine disrupters), and estradiol-17β (female hormone) were used.

In assay [2] the test system is complex consisting of EcR-DF and USP-AE. Put plainly: [3H]ponasterone A binding experiment, charcoal dextran method, recombinants expressed in Escherichia coli. From the text: (§1) In Example 4, in order to separate a binding form from a free form, the charcoal dextran method was applied. This is a common method applied when a steroid hormone is used as a ligand. By adding an activated carbon solution coated with dextran to a reaction solution when the reaction is terminated, a ligand that has not bound to a receptor is adsorbed on the activated carbon. Thereafter, the reaction solution is centrifuged, thereby separating an activated carbon fraction (precipitate fraction) from a supernatant fraction in which a receptor/ligand complex exists.
(§2) In order to prevent the non-specific binding of ponasterone A to a receptor (a complex consisting of an EcR recombinant and a USP recombinant), 1% BSA was first added to a binding buffer (20 mM HEPES (pH7.4)/5 mM DTT/1 nM PMSF). Thereafter, USP-AE or USP-DE was mixed with the EcR-AF, EcR-DF, EcR-DE, EcR-EF, or EcR-E, purified in Example 2. Thereafter, [^3H]ponasterone A ([24, 25, 26, 27-3H] Ponasterone A (American Radiolabeled Chemicals Inc.)) with a final concentration of 1.37 nM was further added thereto. The obtained mixture was reacted at 25° C. 40 minutes later, the reaction was terminated by addition of 200 μl of an activated carbon solution (0.5% Charcoal, dextran coated (SIGMA)/20 mm HEPES/50 mM NaCl). A supernatant fraction obtained after centrifugation was mixed with a liquid scintillator, and the radioactivity (DPM) of the obtained mixture was measured using a liquid scintillation counter (ALOKA LSC-5100). The obtained measurement value was defined as the total binding amount. Moreover, the same experiment was carried out with the exception that nonradioactive ponasterone A that was 10,000 times stronger than [^3H]ponasterone A was added. Then, the amount of a ligand non-specifically binding to a receptor was obtained. The amount of a ligand specifically binding to a receptor was defined as a value obtained by subtracting the non-specific binding amount from the total binding amount.
The optimal reaction time for a binding reaction between a complex consisting of EcR-DF and USP-AE and a ligand was analyzed as follows. First, USP-AE with various types of concentrations was added to a certain amount of EcR-DF, and the obtained mixture was then reacted at 25° C. for 40 minutes in a water bath. The concentration of ponasterone A in the reaction solution was set at 1.34 nM. […]
The optimal reaction time for a binding reaction between a complex consisting of EcR-DF and USP-AE and a ligand was analyzed as follows. […]
The optimal reaction temperature for a binding reaction between a complex consisting of EcR-DF and USP-AE and a ligand was analyzed as follows. […]

For assay [3], the system named is complex consisting of EcR-DF and USP-DE. Described as above. The conditions noted are these: E. coli-expressed recombinants; 1.37 nM [3H]ponasterone A, 25° C., 40 minutes; FIG. 16.
Excerpt: as §1
In order to prevent the non-specific binding of ponasterone A to a receptor (a complex consisting of an EcR recombinant and a USP recombinant), 1% BSA was first added to a binding buffer (20 mM HEPES (pH7.4)/5 mM DTT/1 nM PMSF). Thereafter, USP-AE or USP-DE was mixed with the EcR-AF, EcR-DF, EcR-DE, EcR-EF, or EcR-E, purified in Example 2. Thereafter, [^3H]ponasterone A ([24, 25, 26, 27-3H] Ponasterone A (American Radiolabeled Chemicals Inc.)) with a final concentration of 1.37 nM was further added thereto. The obtained mixture was reacted at 25° C. […] A supernatant fraction obtained after centrifugation was mixed with a liquid scintillator, and the radioactivity (DPM) of the obtained mixture was measured using a liquid scintillation counter (ALOKA LSC-5100). […]

Assay [4] deals with EcR or USP (single use). Put plainly: [3H]ponasterone A binding experiment, charcoal dextran method, single use of EcR or USP recombinant. To be noted: regardless of length, FIG. 16.
Excerpt: as §1
In order to prevent the non-specific binding of ponasterone A to a receptor (a complex consisting of an EcR recombinant and a USP recombinant), 1% BSA was first added to a binding buffer (20 mM HEPES (pH7.4)/5 mM DTT/1 nM PMSF). […] Thereafter, [^3H]ponasterone A ([24, 25, 26, 27-3H] Ponasterone A (American Radiolabeled Chemicals Inc.)) with a final concentration of 1.37 nM was further added thereto. The obtained mixture was reacted at 25° C. 40 minutes later, the reaction was terminated by addition of 200 μl of an activated carbon solution (0.5% Charcoal, dextran coated (SIGMA)/20 mm HEPES/50 mM NaCl). A supernatant fraction obtained after centrifugation was mixed with a liquid scintillator, and the radioactivity (DPM) of the obtained mixture was measured using a liquid scintillation counter (ALOKA LSC-5100). […]

In assay [5] the test system is EcR-DF and USP-AE. The assay is described as follows: [3H]ponasterone A binding experiment using COS-7 cell extracts. The procedure: (§3) Each expression plasmid DNA was independently introduced into COS-7 cells. 48 hours later, each extract was prepared from the cells. In addition, plasmid DNA into which EcR-AF had been inserted and plasmid DNA into which USP-AE had been inserted were co-introduced into COS-7 cells, and an extract was then prepared in the same manner. Moreover, plasmid DNA into which, EcR-DF had been inserted and plasmid DNA into which USP-AE had been inserted were co-introduced into COS-7 cells, and an extract was then prepared in the same manner. Furthermore, plasmid DNA into which EcR-AF had been inserted and plasmid DNA into which USP-DE had been inserted were co-introduced into COS-7 cells, and an extract was then prepared in the same manner. Further, plasmid DNA into which EcR-DF had been inserted and plasmid DNA into which USP-DE had been inserted were co-introduced into COS-7 cells, and an extract was then prepared in the same manner. The expression of a product of interest in the COS-7 cells was confirmed by Western blotting using an anti-FLAG antibody.
(§4) By the aforementioned operations, 4 types of extracts containing each of EcR-AF, EcR-DF, USP-AE, and USP-DE, an extract containing the coexpressed EcR-AF and USP-AE, an extract containing the coexpressed EcR-DF and USP-AE, an extract containing the coexpressed EcR-AF and USP-DE, and an extract containing the coexpressed EcR-DF and USP-DE, were prepared.
as §2, with “The amount of a ligand specifically binding to a receptor was defined as a value obtained by subtracting the non-specific binding amount from the total binding amount.” left out

Assay [6] has as its system EcR-DF and USP-DE. The description is as above. The procedure: as §3, §4
as §2, with “The amount of a ligand specifically binding to a receptor was defined as a value obtained by subtracting the non-specific binding amount from the total binding amount.” left out

The test system of assay [7] is EcR-AF combined with USP-AE or USP-DE. Put plainly: [3H]ponasterone A binding experiment with full-length EcR recombinant. The procedure:
as §3, with “The expression of a product of interest in the COS-7 cells was confirmed by Western blotting using an anti-FLAG antibody.” left out
In order to prevent the non-specific binding of ponasterone A to a receptor (a complex consisting of an EcR recombinant and a USP recombinant), 1% BSA was first added to a binding buffer (20 mM HEPES (pH7.4)/5 mM DTT/1 nM PMSF). […] A supernatant fraction obtained after centrifugation was mixed with a liquid scintillator, and the radioactivity (DPM) of the obtained mixture was measured using a liquid scintillation counter (ALOKA LSC-5100). […]

In assay [8] the target is EcR-DF/USP-AE complex. Put plainly: Scatchard analysis of binding of complex to [3H]ponasterone A. To be noted: EcR-DF:USP-AE 1:1, FIG. 23, read-out: dissociation constant (Kd). On the procedure:
In Example 6, using EcR-DF and USP-AE, the dissociation constant (Kd) of the complex to ponasterone A was obtained as follows. First, EcR-DF was mixed with USP-AE at a molar ratio of 1:1, and [^3H]ponasterone A with various concentrations was then added to the mixture. An activated carbon solution was added to the reaction solution to eliminate free ligands. The amount of the EcR-DF/USP-AE complex binding to [^3H]ponasterone A (total binding amount) was obtained by measuring the radioactivity of a supernatant fraction obtained after centrifugation. Moreover, the same experiment was carried out with the exception that nonradioactive ponasterone A that was 10,000 times stronger than [^3H]ponasterone A was added, so as to obtained non-specific binding. In FIG. 23, the horizontal axis indicates the specific bound amount of [^3H]ponasterone A (nM), the vertical axis indicates specific binding amount (bound)/total binding amount-specific binding amount (free).

Setting [9] is: coexpressed in COS-7 cells, FIG. 17 lanes 7 and 8.
The mark [10] stands for this setting: singly expressed in COS-7 cells, then mixed, FIG. 17 lanes 3 and 4.

“Also recorded” adds a separate entry of the source.

As for `CC/C(=C(/CC)c1ccc(O)cc1)c1ccc(O)cc1` [stilbestrol], the “activity of binding to the EcR-DF/USP-AE complex” value in assay [1] is reported as “exhibited activity of binding; also recorded: exhibited strong binding activity”.

Turning to `CCCCCCCCCc1ccc(O)cc1` [4-nonylphenol], in assay [1], the “activity of binding to the EcR-DF/USP-AE complex” value is “exhibited activity of binding; also recorded: exhibited strong binding activity”.

Take `CCc1ccc(C(=O)NN(C(=O)c2cc(C)cc(C)c2)C(C)(C)C)cc1` [tebufenozide]: in assay [1], the “inhibition of the binding of [3H]ponasterone A to the complex” value was “concentration-dependently inhibit” and the “activity of binding to the complex” value is recorded as “exhibited activity of binding”.

Take `C[C@]12CC[C@@H]3c4ccc(O)cc4CC[C@H]3[C@@H]1CC[C@@H]2O` [estradiol-17β]: the “activity of binding to the EcR-DF/USP-AE complex” value in assay [1] is “exhibited activity of binding”.

As for `CC(C)(O)CC[C@@H](O)[C@](C)(O)[C@H]1CC[C@@]2(O)C3=CC(=O)[C@@H]4C[C@@H](O)[C@@H](O)C[C@]4(C)[C@H]3CC[C@]12C` [20-hydroxyecdysone], in assay [1], the “inhibition of the binding of [3H]ponasterone A to the complex” value is “concentration-dependently inhibit” and the “activity of binding to the complex” value is recorded as “exhibited activity of binding”.

For orientation: Kd means the concentration at which binding is half-saturated. Take `CC(C)CC[C@@H](O)[C@](C)(O)[C@H]1CC[C@@]2(O)C3=CC(=O)[C@@H]4C[C@@H](O)[C@@H](O)C[C@]4(C)[C@H]3CC[C@]12C` [ponasterone A]: the “time necessary for saturation of the binding” value in assay [2] (25° C., 1.34 nM ponasterone A, EcR-DF:USP-AE 1:1) came to 60 min; in assay [2] (low-temperature chamber at 4° C.), 480 min. For the same molecule, the “ability to bind to a ligand (specific binding of [3H]ponasterone A)” value in assay [2] (E. coli-expressed recombinants, 1.37 nM [3H]ponasterone A, 25° C., 40 minutes, FIG. 16) is “had ability to bind”; in assay [3], “had ability to bind”. The “effect of salt (NaCl) concentration on specific binding of ligand to the complex” value in assay [2] (NaCl 0, 50, 100, 300, 500 mM, 25° C., FIG. 21) was “as the salt concentration increased, the specific binding of a ligand to the above complex decreased”. Also, the “specific binding of [3H]ponasterone A” value in assay [4] is on record as “no specific bindings were observed”. For the same molecule, the “binding to a ligand (ponasterone A)” value in assay [5] (setting [9]) was “a strong binding to a ligand was observed”; in assay [5] (setting [10]) it was “no such bindings were observed”; in assay [6] (setting [9]), “a strong binding to a ligand was observed”; in assay [6] (setting [10]) it was “no such bindings were observed”; in assay [7] (COS-7 extracts, coexpression and mixing after single expression, FIG. 17), “no bindings to a ligand were observed”. The “binding of the full-length EcR recombinant (EcR-AF) to ponasterone A” value in assay [7] (both Escherichia coli and mammalian cell expression systems) is “extremely weak”. For the same molecule, in assay [8], the dissociation constant (Kd) stood at 2.79 nM.

The record behind these values is patent publication US7422863B2, “Molting hormone receptor and method for screening ligand to the receptor” (Kumiai Chemical Industry Co., Ltd., priority 2003, dated 2008).
